The target in series [1] is T1, cocaine binding site of the human dopamine transporter (Homo sapiens, UniProt Q01959).
T1 construct: expressed in transfected cells
Briefly: [3H]CFT binding at the cocaine binding site, hDAT cells.

Series [2] deals with T2, human dopamine transporter (Homo sapiens, UniProt Q01959).
T2 construct: expressed in transfected cells
Briefly: [3H]Dopamine uptake inhibition, hDAT cells. The format is cell-based. The settings on record: for Uptake to Binding Ratio (Kiuptake/Kibinding): ratio of Kiuptake to Kibinding at hDAT.

The test system of series [3] is alcohol-preferring (P) line of rats. Kind of series: Inhibition of ethanol intake in alcohol-preferring rats. The format is in vivo, rat. As to conditions: 30 mg/kg i.p. How it is done:
The effect of systemic administration of (R)-(+)-α,α-diphenyl-2-pyrrolidinemethanol on ethanol intake in the alcohol-preferring (P) line of rats was performed as previously described by Panocka et al., Pharm. Biochem. and Behavior, 1995, 52, 2, 255-259, and Murphy et al., Alcohol, 1985, 2, 349-352. In brief, (R)-(+)-α,α-diphenyl-2-pyrrolidinemethanol (30 mg/kg i.p.) was tested in female P rats (n=8) given daily 1 hour scheduled access to a 10% (v/v) ethanol solution. A within-subject design was used where (R)-(+)-α,α-diphenyl-2-pyrrolidinemethanol treatments were tested once per week. Baseline ethanol drinking consisted of the mean of the 3 days prior to testing in which saline injections were given. (R)-(+)-α,α-diphenyl-2-pyrrolidinemethanol or saline, administered i.p. in 1 ml/kg volumes, were injected 10-15 minutes prior to ethanol access. Twenty-four hour water and daily body weights were recorded to assess non-specific drug effects. Results were analyzed using paired t-tests with baseline and test day values serving as the independent variables. Ethanol intake was recorded as amount of solution consumed (mls).

Series [4] relates to Male Long-Evans rats. Kind of series: Inhibition of nicotine self-administration in male Long-Evans rats. The format is in vivo, rat. The settings on record: 10, 20 and 30 mg/kg i.p. 15 minutes before 60 minute session; nicotine 30 μg/kg/infusion; FIG. 1. How it is done:
Male Long-Evans rats were trained to self-administer nicotine on a fixed ratio schedule of reinforcement, as described by Corrigall et al., Psychopharmacology, Vol. 104, No. 2, pp. 171-176 (1991) and Corrigall et al., Psychopharmacology, Vol. 107, Nos. 2-3, pp. 285-289 (1992). In brief, male Long-Evans rats were food deprived for a short period of time (24-48 hours) and trained to press a lever in an operant responding chamber on an FR-1 schedule of food reinforcement. Once trained, each rat was surgically prepared with a chronic intravenous catheter implanted into the jugular vein. The rats were allowed 1 week to recover from surgery.
After 1 week, nicotine self-administration studies were initiated on an FR-1 with a 60 second signaled time-out following each infusion. During time-out, responding on the lever had no scheduled consequence. Nicotine self-administration sessions were 60 minutes in duration. Each nicotine infusion contained 30 μg of nicotine/kg rat and were delivered in a volume of 54 μl over an infusion duration of 0.3 seconds. 15 minutes before the self-administration sessions, the rats were pre-treated intraperitoneally with (R)-(+)-α,α-diphenyl-2-pyrrolidinemethanol at doses of 10, 20 and 30 mg/kg.

The mark [5] stands for this setting: individual rats P31-P40 (b249-b258 in order).

Values joined by “and” are separate entries in the source; they are usually repeats but may differ in a detail not shown here. Identical values can stand only once.

T2 sequence (Q01959 whole entry): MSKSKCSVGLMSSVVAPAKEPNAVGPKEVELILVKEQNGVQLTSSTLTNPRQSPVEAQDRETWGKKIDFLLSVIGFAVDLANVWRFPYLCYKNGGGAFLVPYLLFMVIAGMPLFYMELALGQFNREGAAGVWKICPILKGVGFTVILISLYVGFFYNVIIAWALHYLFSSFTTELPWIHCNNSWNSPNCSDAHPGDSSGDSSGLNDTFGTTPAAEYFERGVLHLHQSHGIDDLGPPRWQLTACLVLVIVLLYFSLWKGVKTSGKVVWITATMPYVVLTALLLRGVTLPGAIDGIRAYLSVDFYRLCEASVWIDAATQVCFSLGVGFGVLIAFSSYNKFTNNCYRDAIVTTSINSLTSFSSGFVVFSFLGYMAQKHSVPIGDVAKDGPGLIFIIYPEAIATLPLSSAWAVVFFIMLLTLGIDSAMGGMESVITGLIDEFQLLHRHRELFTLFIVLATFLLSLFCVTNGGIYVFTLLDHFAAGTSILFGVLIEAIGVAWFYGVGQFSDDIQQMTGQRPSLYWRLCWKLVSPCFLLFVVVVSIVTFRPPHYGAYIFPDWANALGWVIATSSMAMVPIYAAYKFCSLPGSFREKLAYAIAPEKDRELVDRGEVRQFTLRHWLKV
T1 sequence (Q01959 whole entry): as above

Take `OC(c1ccccc1)(c1ccccc1)[C@H]1CCCN1` [Compound 1, (R)-(+)-α,α-diphenyl-2-pyrrolidinemethanol]: the inhibition constant Ki (usually the dissociation constant of the complex between target and ligand, obtained from inhibition or displacement) in series [1] worked out at 40 nM. Besides, in series [2], affinity was put at a Ki of 170 nM and the “Uptake to Binding Ratio (Kiuptake/Kibinding)” value is 4.25. Further, in series [3] (1 hour access period, vs saline baseline, p<0.05), the “reduction of ethanol consumption” value is “approximately 45%”. Also, the “effect on water consumption” value in series [3] (24 hours following administration) is listed as “no effect”. Moreover, in series [3] (Means of rats P31-P40), the “Post-drug Water 24 hr” value amounted to 25 mL, the “Post-drug Weight” value is on record as 300 g, the “Test Day Ethanol 1 hr (g/kg)” value turned out to be 1.2 g/kg and the “Test Day Ethanol 1 hr (ml)” value was found to be 4.5 mL. The “effect on body weights” value in series [3] (P rats) was “not altered”. Further, in series [3] (female P rats, 10% (v/v) ethanol, mean ± S.E.M., saline baseline 8.2±0.8 mls, p<0.05), the “1 hour ethanol consumption” value is 4.5±1.2 mls. Also, in series [3] (female P rats, mean ± S.E.M., saline baseline 28±2.2 mls), the “24 hour water intake” value is recorded as 25±2.1 mls. Also, in series [3] (female P rats, mean ± S.E.M., saline baseline 310±6.1 g), the “24 hour body weights” value is 300 ± 6.2 g. Besides, in series [3] (setting [5]), the “Post-drug Water 24 hr” value was 23 mL and 26 mL and 28 mL and 32 mL and 18 mL and 12 mL; the “Post-drug Weight” value is 329 g and 291 g and 294 g and 305 g and 290 g and 297 g and 312 g and 263 g and 323 g; the “Test Day Ethanol 1 hr (g/kg)” value is 1.9 g/kg and 0.3 g/kg and 0.5 g/kg and 2.4 g/kg and 1.0 g/kg and 0.8 g/kg and 0 g/kg; the “Test Day Ethanol 1 hr (ml)” value was 8 mL and 7 mL and 1 mL and 2 mL and 10 mL and 9 mL and 4 mL and 3 mL and 0 mL. The nicotine self-administration entry in series [4] is recorded as “dose-dependently attenuated”.
Molecule `OC(c1ccccc1)(c1ccccc1)[C@@H]1CCCN1` [Compound 2, (S)-(-)-α,α-diphenyl-2-pyrrolidinemethanol] registered an inhibition constant (Ki) in series [1] of 400 nM. Also, in series [2], the Ki came to 1650 nM and the “Uptake to Binding Ratio (Kiuptake/Kibinding)” value worked out at 4.12.
The molecule `CCCN1CCC[C@H]1C(O)(c1ccccc1)c1ccccc1` [Compound 3, (S)-(-)-1-propyl-α,α-diphenyl-2-pyrrolidinemethanol] showed an inhibition constant (Ki) in series [1] of 3300 nM. Also, in series [2], affinity was put at a Ki of 10300 nM and the “Uptake to Binding Ratio (Kiuptake/Kibinding)” value amounted to 3.12.
On the same counts, the results for `Cc1cc(C(O)(c2ccc(F)c(C)c2)[C@@H]2CCCN2)ccc1F` [Compound 4, (S)-α,α-Bis(3-methyl-4-fluorophenyl)-2-pyrrolidinemethanol] are 260 nM, 440 nM and 1.69.

The record behind these values is US5925666A, “Pharmaceutical compositions and methods for treating compulsive disorders using pyrrolidine derivatives” (Guilford Pharmaceuticals Inc., priority 1997, dated 1999).
